{"source": "ChEMBL document CHEMBL4804283", "about": "“Stk19 inhibitors for treatment of cancer” (2020)", "key": {"[1]": {"molecular_target": "T1, Inactive serine/threonine-protein kinase 19 (Homo sapiens) (UniProt P49842)", "T1 sequence (whole entry)": "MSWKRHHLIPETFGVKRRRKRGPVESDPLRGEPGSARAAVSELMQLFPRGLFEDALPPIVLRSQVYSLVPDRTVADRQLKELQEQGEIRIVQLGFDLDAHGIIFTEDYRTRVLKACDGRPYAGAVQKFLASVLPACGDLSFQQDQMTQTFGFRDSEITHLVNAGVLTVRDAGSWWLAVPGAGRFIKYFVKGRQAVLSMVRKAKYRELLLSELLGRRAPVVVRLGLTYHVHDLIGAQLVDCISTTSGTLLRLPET", "test": "Inhibition of recombinant human STK19 assessed as NRAS phosphorylation at 1-3 uM relative to control"}, "[2]": {"test_system": "T2, Inactive serine/threonine-protein kinase 19 (Homo sapiens), P49842 [D89N]", "T2 sequence (whole entry)": "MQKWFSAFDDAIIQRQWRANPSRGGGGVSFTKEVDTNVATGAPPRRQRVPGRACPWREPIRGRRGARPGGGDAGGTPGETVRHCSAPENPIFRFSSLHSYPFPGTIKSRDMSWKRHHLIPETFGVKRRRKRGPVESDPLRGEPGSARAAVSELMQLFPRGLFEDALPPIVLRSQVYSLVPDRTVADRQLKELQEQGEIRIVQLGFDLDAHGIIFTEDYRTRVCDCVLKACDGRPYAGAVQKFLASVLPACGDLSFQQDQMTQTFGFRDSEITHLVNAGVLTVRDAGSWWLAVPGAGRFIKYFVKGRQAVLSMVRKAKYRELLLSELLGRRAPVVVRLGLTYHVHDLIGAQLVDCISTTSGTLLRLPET", "test": "Inhibition of STK19 D89N mutant in human primary melanocytes at 0.1-3 uM relative to control", "assay_type": "cell-based"}, "[3]": {"test": "Toxicity in C57BL/6J mouse assessed as effect on alanine aminotransferase level at 25 mg/kg, administered twice daily for 20 days", "assay_type": "organism-based", "details": "in vivo, 480 h"}, "[4]": {"test": "Toxicity in C57BL/6J mouse assessed as effect on aspartate aminotransferase level at 25 mg/kg, administered twice daily for 20 days", "assay_type": "organism-based", "details": "in vivo, 480 h"}, "[5]": {"test": "Toxicity in C57BL/6J mouse assessed as effect on total protein level at 25 mg/kg, administered twice daily for 20 days", "assay_type": "organism-based", "details": "in vivo, 480 h"}, "[6]": {"test": "Toxicity in C57BL/6J mouse assessed as effect on creatinine level at 25 mg/kg, administered twice daily for 20 days", "assay_type": "organism-based", "details": "in vivo, 480 h"}, "[7]": {"test": "Toxicity in C57BL/6J mouse assessed as heart histology at 25 mg/kg, administered twice daily for 20 days by H and E staining method", "assay_type": "organism-based", "details": "in vivo, 480 h"}, "[8]": {"test": "Toxicity in C57BL/6J mouse assessed as lung histology at 25 mg/kg, administered twice daily for 20 days by H and E staining method", "assay_type": "organism-based", "details": "in vivo, 480 h"}, "[9]": {"test": "Toxicity in C57BL/6J mouse assessed as spleen histology at 25 mg/kg, administered twice daily for 20 days by H and E staining method", "assay_type": "organism-based", "details": "in vivo, 480 h"}, "[10]": {"test": "Toxicity in C57BL/6J mouse assessed as brain histology at 25 mg/kg, administered twice daily for 20 days by H and E staining method", "assay_type": "organism-based", "details": "in vivo, 480 h"}, "hTERT [11]": {"test_system": "hTERT", "test": "Inhibition of colony formation in hTERT/p53DD/CDK4 (R24C) immortal melanocytes expressing wild-type STK19 at 3 uM relative to control", "assay_type": "functional", "details": "Homo sapiens"}, "hTERT [12]": {"test_system": "hTERT", "test": "Inhibition of colony formation in hTERT/p53DD/CDK4 (R24C) immortal melanocytes expressing STK19 D89N mutant at 3 uM relative to control", "assay_type": "functional", "details": "Homo sapiens"}, "hTERT [13]": {"test_system": "hTERT", "test": "Antiproliferative activity against hTERT/p53DD/CDK4 (R24C) immortal melanocytes expressing STK19 D89N mutant at 3 uM relative to control", "assay_type": "functional, tissue-based", "details": "Homo sapiens"}, "hTERT [14]": {"test_system": "hTERT", "test": "Antitumor activity against hTERT/p53DD/CDK4 (R24C) immortal melanocytes expressing wild-type STK19 xenografted in nude mouse assessed as reduction in tumor formation", "assay_type": "functional", "details": "Homo sapiens"}, "hTERT [15]": {"test_system": "hTERT", "test": "Antitumor activity against hTERT/p53DD/CDK4 (R24C) immortal melanocytes expressing STK19 D89N mutant xenografted in nude mouse assessed as reduction in tumor formation", "assay_type": "functional", "details": "Homo sapiens"}, "SK-MEL-2 [16]": {"test_system": "SK-MEL-2", "test": "Antitumor activity against human SK-MEL-2 cells xenografted in nude mouse assessed as inhibition of cancer cell proliferation at 25 mg/kg, administered for 21 days", "assay_type": "functional, organism-based"}, "SK-MEL-2 [17]": {"test_system": "SK-MEL-2", "test": "Antitumor activity against human SK-MEL-2 cells xenografted in nude mouse assessed as inhibition of cancer cell proliferation at 50 mg/kg, administered for 21 days", "assay_type": "functional, organism-based"}, "[18]": {"test": "Toxicity in nude mouse xenografted with human SK-MEL-2 cells assessed as increase in animal survival at 50 mg/kg", "assay_type": "organism-based", "details": "in vivo"}, "[19]": {"molecular_target": "T1, Inactive serine/threonine-protein kinase 19 (Homo sapiens)", "test": "Inhibition of STK19 in STK19-depleted human primary melanocytes expressing wild-type STK19 at 1-3 uM assessed as NRAS phosphorylation relative to control", "assay_type": "tissue-based", "details": "Melanocyte"}, "SK-MEL-2 [20]": {"test_system": "SK-MEL-2", "test": "Inhibition of G9a in nude mouse xenografted with human SK-MEL-2 cells assessed as decrease in H3K9 methylation at 25 mg/kg", "assay_type": "functional, organism-based"}, "[21]": {"molecular_target": "T1, Inactive serine/threonine-protein kinase 19 (Homo sapiens)", "test": "Inhibition of STK19 in human SK-MEL-2 cells expressing NRAS Q61R and wild-type BRAF at 1-3 uM assessed as MEK-ERK signaling relative to control", "assay_type": "cell-based"}, "[22]": {"molecular_target": "T1, Inactive serine/threonine-protein kinase 19 (Homo sapiens)", "test": "Inhibition of STK19 in human WM2032 cells expressing NRAS Q61R and wild-type BRAF at 1-3 uM assessed as MEK-ERK signaling relative to control", "assay_type": "cell-based"}, "[23]": {"molecular_target": "T1, Inactive serine/threonine-protein kinase 19 (Homo sapiens)", "test": "Inhibition of STK19 in human A375 cells expressing wild-type NRAS and BRAF V600E mutant at 1-3 uM assessed as MEK-ERK signaling relative to control", "assay_type": "cell-based", "details": "A-375"}, "[24]": {"molecular_target": "T1, Inactive serine/threonine-protein kinase 19 (Homo sapiens)", "test": "Inhibition of STK19 in human UACC62 cells expressing wild-type NRAS and BRAF V600E mutant at 1-3 uM assessed as MEK-ERK signaling relative to control", "assay_type": "cell-based", "details": "UACC-62"}, "[25]": {"molecular_target": "T1, Inactive serine/threonine-protein kinase 19 (Homo sapiens)", "test": "Inhibition of STK19 in human WM2032 cells expressing NRAS Q61R and wild-type BRAF at 1-3 uM assessed as PI3K signaling relative to control", "assay_type": "cell-based"}, "UACC-62 [26]": {"test_system": "UACC-62", "test": "Growth inhibition of human UACC62 cells expressing wild-type NRAS and BRAF V600E mutant at 1-3 uM relative to control", "assay_type": "functional, cell-based"}, "UACC-62 [27]": {"test_system": "UACC-62", "test": "Induction of apoptosis in human UACC62 cells expressing wild-type NRAS and BRAF V600E mutant at 1-3 uM relative to control", "assay_type": "functional, cell-based"}, "[28]": {"molecular_target": "T1, Inactive serine/threonine-protein kinase 19 (Homo sapiens)", "test": "Inhibition of STK19 in human SK-MEL-2 cells expressing NRAS Q61R and wild-type BRAF at 100 nM assessed as NRAS phosphorylation relative to control", "assay_type": "cell-based"}, "[29]": {"molecular_target": "T1, Inactive serine/threonine-protein kinase 19 (Homo sapiens)", "test": "Inhibition of STK19 in human SK-MEL-2 cells expressing NRAS Q61R and wild-type BRAF at 300 nM assessed as H3K9 methylation relative to control", "assay_type": "cell-based"}, "[30]": {"molecular_target": "T1, Inactive serine/threonine-protein kinase 19 (Homo sapiens)", "test": "Inhibition of STK19 in human WM2032 cells expressing NRAS Q61R and wild-type BRAF at 100 nM assessed as NRAS phosphorylation relative to control", "assay_type": "cell-based"}, "[31]": {"molecular_target": "T1, Inactive serine/threonine-protein kinase 19 (Homo sapiens)", "test": "Inhibition of STK19 in human WM2032 cells expressing NRAS Q61R and wild-type BRAF at 300 nM assessed as NRAS phosphorylation relative to control", "assay_type": "cell-based"}}, "note": "The source made the active and inactive calls. The rule behind the calls is not given here.", "data": [{"smiles": "COc1cc2nc(NC3CC3)nc(NC3CCN(C(C)C)CC3)c2cc1OC.O=C(O)C(F)(F)F", "values": [{"measurement": "Activity", "setting": "[1]", "value": "Active"}, {"measurement": "inhibition", "setting": "[2]", "value": "Active"}, {"measurement": "Activity", "setting": "[3]", "value": "Non-Toxic"}, {"measurement": "Activity", "setting": "[4]", "value": "Non-Toxic"}, {"measurement": "Activity", "setting": "[5]", "value": "Non-Toxic"}, {"measurement": "Activity", "setting": "[6]", "value": "Non-Toxic"}, {"measurement": "Activity", "setting": "[7]", "value": "Non-Toxic"}, {"measurement": "Activity", "setting": "[8]", "value": "Non-Toxic"}, {"measurement": "Activity", "setting": "[9]", "value": "Non-Toxic"}, {"measurement": "Activity", "setting": "[10]", "value": "Non-Toxic"}, {"measurement": "Activity", "setting": "hTERT [11]", "value": "Active"}, {"measurement": "Activity", "setting": "hTERT [12]", "value": "Active"}, {"measurement": "Activity", "setting": "hTERT [13]", "value": "Active"}, {"measurement": "Activity", "setting": "hTERT [14]", "value": "Active"}, {"measurement": "Activity", "setting": "hTERT [15]", "value": "Active"}, {"measurement": "Activity", "setting": "SK-MEL-2 [16]", "value": "Active"}, {"measurement": "Activity", "setting": "SK-MEL-2 [17]", "value": "Active"}, {"measurement": "Activity", "setting": "[18]", "value": "Non-Toxic"}, {"measurement": "inhibition", "setting": "[19]", "value": "Active"}, {"measurement": "inhibition", "setting": "SK-MEL-2 [20]", "value": "inactive"}, {"measurement": "inhibition", "setting": "[21]", "value": "Active"}, {"measurement": "inhibition", "setting": "[22]", "value": "Active"}, {"measurement": "inhibition", "setting": "[23]", "value": "inactive"}, {"measurement": "inhibition", "setting": "[24]", "value": "inactive"}, {"measurement": "inhibition", "setting": "[25]", "value": "Active"}, {"measurement": "Activity", "setting": "UACC-62 [26]", "value": "inactive"}, {"measurement": "Activity", "setting": "UACC-62 [27]", "value": "inactive"}, {"measurement": "inhibition", "setting": "[28]", "value": "Active"}, {"measurement": "inhibition", "setting": "[29]", "value": "inactive"}, {"measurement": "inhibition", "setting": "[30]", "value": "Active"}, {"measurement": "inhibition", "setting": "[31]", "value": "Active"}]}]}
